Measured values reported in the Kinase Knowledgebase extract (Sharma et al. 2016).
Several values for one entry are separate records, joined by “and”; a condition that tells them apart may be missing. Identical values can stand only once.

Target: MAPK14 (human) (UniProt Q16539)
Assay: Inhibition of MAPK14 Kinase Activity
Conditions: THP.1 monocytic

Sequence of MAPK14 (human) (Q16539 whole entry, looked up): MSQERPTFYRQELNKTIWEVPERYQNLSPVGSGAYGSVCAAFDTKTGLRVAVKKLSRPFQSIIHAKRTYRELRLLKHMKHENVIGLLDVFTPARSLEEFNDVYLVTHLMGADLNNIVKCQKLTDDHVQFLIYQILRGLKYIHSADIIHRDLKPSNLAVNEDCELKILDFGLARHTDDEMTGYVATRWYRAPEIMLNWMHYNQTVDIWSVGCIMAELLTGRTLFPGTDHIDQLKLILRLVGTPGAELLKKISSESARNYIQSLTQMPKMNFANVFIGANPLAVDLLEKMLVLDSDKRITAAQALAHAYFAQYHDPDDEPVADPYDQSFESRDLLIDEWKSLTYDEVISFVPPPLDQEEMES

Structure (SMILES)	IC50
Cc1cc(OCc2ccc(F)cc2F)c(Br)c(=O)n1-c1c(F)c(Br)c(O)c(Br)c1F	1000 to 25000 nM
Cc1cc(OCc2ccc(F)cc2F)c(Br)c(=O)n1Cc1ccc(C(=O)NCCN)cc1	< 1000 nM
Cc1cc(OCc2ccc(F)cc2F)c(Br)c(=O)n1-c1cccc(C(=O)NCCN(C)C)c1	< 1000 nM
O=c1c(Br)c(OCc2ccccc2)ccn1Cc1cccc(F)c1	< 1000 nM
CC(=O)OCC(=O)NCc1cccc(-n2c(C)cc(OCc3ccc(F)cc3F)c(Br)c2=O)c1	1000 to 25000 nM
O=c1c(Br)c(OCc2ccc(F)cc2F)cc(CN2CCOCC2)n1-c1c(F)cccc1F	< 1000 nM
O=c1c(Br)c(NCc2ccc(Cl)cc2F)ccn1Cc1cccc(F)c1	1000 to 25000 nM
Cc1c(C=O)c(OCc2ccc(F)cc2F)c(Br)c(=O)n1-c1c(F)cccc1F	25000 to 100000 nM
NC(=O)c1cccc(Cn2ccc(OCc3ccccc3)c(Br)c2=O)c1	1000 to 25000 nM
Cc1cc(OCc2ccc(F)cc2F)c(Br)c(=O)n1-c1ccccc1C(F)(F)F	< 1000 nM
COC(=O)c1ccc(Cn2ccc(OCc3ccccc3)c(Br)c2=O)cc1	< 1000 nM
Cc1cc(OCc2ccc(F)cc2F)c(Br)c(=O)n1Cc1ccccc1C(N)=O	1000 to 25000 nM
Cc1cc(OCc2ccc(F)cc2F)c(Br)c(=O)n1-c1c(F)cc(N(C)C)cc1F	< 1000 nM
O=c1c(Br)c(NCc2ccc(F)cc2C(F)(F)F)ccn1Cc1cccc(F)c1	> 100000 nM
O=c1c(Br)c(OCc2ccccc2-c2ccccc2)ccn1Cc1cccc(F)c1	> 100000 nM
O=c1c(Cl)c(OCc2ccc(F)cc2F)cc(CO)n1-c1c(F)cc(F)cc1F	< 1000 nM
C=CCn1c(C)cc(OCc2ccc(F)cc2F)c(Br)c1=O	< 1000 nM
O=c1[nH]ccc(OCc2ccccc2)c1Br	> 100000 nM
CN(C)Cc1cc(OCc2ccc(F)cc2F)c(Br)c(=O)n1-c1c(F)cccc1F	< 1000 nM
COC(=O)c1ccc(C)c(-n2c(C)cc(OCc3ccc(F)cc3F)c(Cl)c2=O)c1	< 1000 nM
Cc1ccc(Cn2ccc(OCc3ccccc3)cc2=O)cc1	25000 to 100000 nM
CC(=O)Nc1ccc(Cn2c(C)cc(OCc3ccc(F)cc3F)c(Br)c2=O)cc1	< 1000 nM
Cc1cc(OCc2ccc(F)cc2F)c(Cl)c(=O)n1-c1c(F)cc(N2CCN(C)CC2)cc1F	< 1000 nM
Cc1cc(OCc2ccc(F)cc2F)c(Br)c(=O)n1-c1cccc(CNC(=O)N(C)C)c1	1000 to 25000 nM
Cc1cc(NCc2ccc(F)cc2F)c(Cl)c(=O)n1-c1c(F)cccc1F	1000 to 25000 nM
Cc1cc(OCc2ccc(F)cc2F)c(Br)c(=O)n1Cc1cccc(CN2CCOCC2)c1	< 1000 nM
Cc1cc(OCc2ccc(F)cc2F)c(Br)c(=O)n1-c1cccc(CN(C)C)c1	1000 to 25000 nM
CCOC(=O)CNc1nc(C)ncc1Cn1c(C)cc(OCc2ccc(F)cc2F)c(Br)c1=O	1000 to 25000 nM
O=c1c(Br)c(NCc2cccc(C(F)(F)F)c2)ccn1Cc1cccc(F)c1	1000 to 25000 nM
CNC(=O)c1ccc(Cn2c(C)cc(OCc3ccc(F)cc3F)c(Br)c2=O)cc1	< 1000 nM and 1000 to 25000 nM
